{"source": "patent US11564394B2", "about": "“Distorted gold (I)-phosphine complexes and methods for use as antifungal agents” (University of Kentucky Research Foundation, priority 2019, dated 2023)", "key": {"[1]": {"tested_on": "C. albicans ATCC MYA-1003(R) (strain A)", "assay_type": "cell-based, Candida albicans", "conditions": "strain A = C. albicans ATCC MYA-1003(R); MIC-0; 48 h at 35° C."}, "[2]": {"tested_on": "C. albicans ATCC 10231(R) (strain B)", "assay_type": "cell-based, Candida albicans"}, "[3]": {"tested_on": "C. albicans ATCC MYA-1237(R) (strain C)", "assay_type": "cell-based, Candida albicans", "conditions": "strain C = C. albicans ATCC MYA-1237(R); MIC-0; 48 h; listed as printed beside letter D"}, "[4]": {"tested_on": "C. albicans ATCC MYA-2310(S) (strain D)", "assay": "MIC determination (broth microdilution)", "assay_type": "cell-based, Candida albicans", "conditions": "strain D = C. albicans ATCC MYA-2310(S); MIC-0; 48 h; listed as printed beside letter E"}, "[5]": {"tested_on": "C. albicans ATCC 64124(R) (strain F)", "assay_type": "cell-based, Candida albicans", "conditions": "strain F = C. albicans ATCC 64124(R); MIC-0; 48 h; listed as printed beside letter G"}, "[6]": {"tested_on": "C. auris AR Bank # 0390 (strain L)", "assay": "MIC determination (broth microdilution)", "assay_type": "cell-based, Candida auris", "conditions": "strain L = C. auris AR Bank # 0390; MIC-0; 48 h (CAS read at 24 h); Table 1 row printed without letter, below L; also in Table 2"}, "[7]": {"tested_on": "C. neoformans CN2 (strain O)", "assay": "MIC determination (broth microdilution)", "assay_type": "cell-based, Cryptococcus neoformans", "conditions": "MIC-0, 72 h at 35° C."}, "[8]": {"tested_on": "C. neoformans CN3 (strain P)", "assay": "MIC determination (broth microdilution)", "assay_type": "cell-based, Cryptococcus neoformans", "conditions": "MIC-0, 72 h at 35° C."}, "[9]": {"tested_on": "A. nidulans ATCC 38163 (strain Q)", "assay": "MIC determination (broth microdilution)", "assay_type": "cell-based, Aspergillus nidulans", "conditions": "strain Q = A. nidulans ATCC 38163; MIC-0; 72 h at 35° C."}, "[10]": {"tested_on": "A. flavus ATCC MYA-3631 (strain S)", "assay": "MIC determination (broth microdilution)", "assay_type": "cell-based, Aspergillus flavus", "conditions": "strain S = A. flavus ATCC MYA-3631; MIC-0; 72 h at 35° C."}, "[11]": {"tested_on": "C. auris AR Bank # 0381 (strain I)", "assay": "MIC determination (broth microdilution)", "assay_type": "cell-based, Candida auris", "conditions": "strain I = C. auris AR Bank # 0381; MIC-0; 48 h (CAS read at 24 h)"}, "[12]": {"tested_on": "C. auris AR Bank # 0382 (strain II)", "assay": "MIC determination (broth microdilution)", "assay_type": "cell-based, Candida auris", "conditions": "strain II = C. auris AR Bank # 0382; MIC-0; 48 h (CAS read at 24 h)"}, "[13]": {"tested_on": "C. auris AR Bank # 0388 (strain VII)", "assay": "MIC determination (broth microdilution)", "assay_type": "cell-based, Candida auris", "conditions": "strain VII = C. auris AR Bank # 0388; MIC-0; 48 h (CAS read at 24 h)"}, "[14]": {"tested_on": "C. auris AR Bank # 0389 (strain VIII)", "assay": "MIC determination (broth microdilution)", "assay_type": "cell-based, Candida auris", "conditions": "strain VIII = C. auris AR Bank # 0389; MIC-0; 48 h (CAS read at 24 h)"}, "[15]": {"tested_on": "C. albicans ATCC 10231 (strain B) biofilm", "assay": "Prevention of biofilm formation (XTT)", "assay_type": "cell-based, Candida albicans", "conditions": "treated at 0 h, 90% decrease in metabolic activity (XTT)"}, "[16]": {"tested_on": "C. auris AR Bank # 0384 (strain K) biofilm", "assay_type": "cell-based, Candida auris", "conditions": "treated at 0 h, XTT"}, "[17]": {"tested_on": "C. albicans ATCC 10231 (strain B) pre-formed biofilm", "assay": "Disruption of pre-formed biofilm (XTT)", "assay_type": "cell-based, Candida albicans"}, "[18]": {"tested_on": "C. auris AR Bank # 0390 (strain L) pre-formed biofilm", "assay_type": "cell-based, Candida auris", "conditions": "biofilm treated at 24 h, XTT"}, "[19]": {"tested_on": "fungal strains (Candida spp., Cryptococcus spp., Aspergillus spp., Fusarium spp.)", "assay": "MIC determination, summary statements over the strain panel", "assay_type": "cell-based"}, "[20]": {"tested_on": "four mammalian cell lines (A549, BEAS-2B, HEK-293, J774A.1)", "assay": "Mammalian cytotoxicity assays, summary over cell lines", "assay_type": "cell-based", "from_the_text": "For cytotoxicity assays, the human embryonic kidney cell line (HEK-293) was purchased from the ATCC. The human bronchial epithelial cell line (BEAS-2B), the human lung carcinoma cell line (A549), and the mouse macrophage cell line (J774A.1) were generous gifts from Prof. David K. Orren (University of Kentucky, Lexington, Ky.), Prof. Markos Leggas (University of Kentucky, Lexington, Ky.), and Prof. David J. Feola (University of Kentucky, Lexington, Ky.), respectively. A549, HEK-293, and BEAS-2B cells were cultured in Dulbecco's Modified Eagle's Medium (DMEM, catalog #VWRL0100, VWR, Chicago, Ill.) supplemented with 10% fetal bovine serum (FBS; from ATCC) and 1% penicillin/streptomycin (from ATCC) at 37° C. with 5% CO2. The J774A.1 cells were cultured in DMEM (catalog #30-2002, ATCC, Manassas, Va.), which was also supplemented with FBS and antibiotics and grown at 37° C. with 5% CO2.\nTo examine whether the compounds are safe for human cells, cytotoxicity assays were done against four mammalian cell lines: HEK-293, A549, BEAS-2B, and J774A.1 cells. […] HEK-293 and J774A.1 cells were plated at 1×10^4 cells/mL while A549 and BEAS-2B were plated at 3×10^3 cells/mL. Compounds were tested in concentrations ranging from 0.06 to 15.6 μg/mL with final concentration of DMSO at 0.5% (FIG. 4A-D)."}}}
{"substance": "bis-[1,2-bis[(2S,5S)-2,5-dimethylphospholano]benzene]gold(I) [Compound 4]", "values": [{"measurement": "MIC", "setting": "[1]", "result": 0.98, "unit": "µg/mL"}, {"measurement": "MIC (in parentheses)", "setting": "[1]", "result": 1.2, "unit": "µM"}, {"measurement": "MIC", "setting": "[2]", "result": "1.95 (2.3) μg/mL"}, {"measurement": "MIC (in parentheses)", "setting": "[2]", "result": "1.95 (2.3) μM"}, {"measurement": "MIC", "setting": "[3]", "result": 0.98, "unit": "µg/mL"}, {"measurement": "MIC (in parentheses)", "setting": "[3]", "result": 1.2, "unit": "µM"}, {"measurement": "MIC", "setting": "[4]", "result": 0.98, "unit": "µg/mL"}, {"measurement": "MIC (in parentheses)", "setting": "[4]", "result": 1.2, "unit": "µM"}, {"measurement": "MIC", "setting": "[5]", "result": 0.98, "unit": "µg/mL"}, {"measurement": "MIC (in parentheses)", "setting": "[5]", "result": 1.2, "unit": "µM"}, {"measurement": "MIC", "setting": "[6]", "result": 7.8, "unit": "µg/mL"}, {"measurement": "MIC (in parentheses)", "setting": "[6]", "result": 9.2, "unit": "µM"}, {"measurement": "MIC", "setting": "[7]", "result": 0.98, "unit": "µg/mL"}, {"measurement": "MIC (in parentheses)", "setting": "[7]", "result": 1.2, "unit": "µM"}, {"measurement": "MIC", "setting": "[8]", "result": 0.98, "unit": "µg/mL"}, {"measurement": "MIC (in parentheses)", "setting": "[8]", "result": 1.2, "unit": "µM"}, {"measurement": "MIC", "setting": "[9]", "result": 3.9, "unit": "µg/mL"}, {"measurement": "MIC (in parentheses)", "setting": "[9]", "result": 4.6, "unit": "µM"}, {"measurement": "MIC", "setting": "[10]", "result": 7.8, "unit": "µg/mL"}, {"measurement": "MIC (in parentheses)", "setting": "[10]", "result": 9.2, "unit": "µM"}, {"measurement": "MIC", "setting": "[11]", "result": 0.98, "unit": "µg/mL"}, {"measurement": "MIC (in parentheses)", "setting": "[11]", "result": 1.2, "unit": "µM"}, {"measurement": "MIC", "setting": "[12]", "result": 1.95, "unit": "µg/mL"}, {"measurement": "MIC (in parentheses)", "setting": "[12]", "result": 2.3, "unit": "µM"}, {"measurement": "MIC", "setting": "[13]", "result": 1.95, "unit": "µg/mL"}, {"measurement": "MIC (in parentheses)", "setting": "[13]", "result": 2.3, "unit": "µM"}, {"measurement": "MIC", "setting": "[14]", "result": 1.95, "unit": "µg/mL"}, {"measurement": "MIC (in parentheses)", "setting": "[14]", "result": 2.3, "unit": "µM"}, {"measurement": "Biofilm prevention SMIC90", "setting": "[15]", "result": 3.9, "unit": "µg/mL"}, {"measurement": "Biofilm prevention SMIC90", "setting": "[16]", "result": 3.9, "unit": "µg/mL"}, {"measurement": "SMIC90 of pre-formed biofilm relative to MIC with planktonic cells", "setting": "[17]", "result": 4, "unit": "fold"}, {"measurement": "Pre-formed biofilm SMIC90", "setting": "[17]; biofilm treated at 24 h, XTT", "result": 7.8, "unit": "µg/mL"}, {"measurement": "Pre-formed biofilm SMIC90", "setting": "[18]", "result": 15.6, "unit": "µg/mL"}, {"measurement": "overall assessment as antifungals", "setting": "[19]; panel of twenty fungal strains (Table 1)", "result": "great promise"}, {"measurement": "antifungal activity class", "setting": "[19]; two C. auris strains (K and L)", "result": "good (MIC = 3.9-7.8 μg/mL (good antifungal activity))"}, {"measurement": "IC50", "setting": "[20]; BEAS-2B, HEK-293, and J774A.1, read-out: IC50 values (range over cell lines)", "result": "1500 to 2000", "unit": "nM"}, {"measurement": "cell survival", "setting": "[20]; at 15.6 μg/mL, excluding auranofin with J774A.1", "result": "no cell survival"}]}
